Laboratory results published in ChEMBL document CHEMBL1155310, “Synthesis and evaluation of 2-amino-dihydrotetrabenzine derivatives as probes for imaging vesicular monoamine transporter-2” (Bioorg Med Chem Lett, 2009).
Values belong to the compound of their own block, whether it stands above or below them.

Legend:
[1] = molecular target: T1, Synaptic vesicular amine transporter (Rattus norvegicus, UniProt Q01827); assay: Displacement of [3H]-DTBZ from VMAT2 in rat striatal membrane homogenates; format: cell membranes, Striatum
[2] = molecular target: T1, Synaptic vesicular amine transporter; assay: Displacement of [125I]-iodovinyl-TBZ from VMAT2 in rat striatal membrane homogenates; format: cell membranes, Striatum
[3] = Ratio of drug level in striatum to cerebellum in iv dosed mouse after 30 mins; format: ADME, organism-based; conditions: in vivo, 0.5 h
[4] = molecular target: Synaptic vesicular amine transporter (Homo sapiens, UniProt Q05940); assay: Binding affinity to VMAT2
Chain of Synaptic vesicular amine transporter (Homo sapiens, UniProt Q05940) (Q05940 whole entry): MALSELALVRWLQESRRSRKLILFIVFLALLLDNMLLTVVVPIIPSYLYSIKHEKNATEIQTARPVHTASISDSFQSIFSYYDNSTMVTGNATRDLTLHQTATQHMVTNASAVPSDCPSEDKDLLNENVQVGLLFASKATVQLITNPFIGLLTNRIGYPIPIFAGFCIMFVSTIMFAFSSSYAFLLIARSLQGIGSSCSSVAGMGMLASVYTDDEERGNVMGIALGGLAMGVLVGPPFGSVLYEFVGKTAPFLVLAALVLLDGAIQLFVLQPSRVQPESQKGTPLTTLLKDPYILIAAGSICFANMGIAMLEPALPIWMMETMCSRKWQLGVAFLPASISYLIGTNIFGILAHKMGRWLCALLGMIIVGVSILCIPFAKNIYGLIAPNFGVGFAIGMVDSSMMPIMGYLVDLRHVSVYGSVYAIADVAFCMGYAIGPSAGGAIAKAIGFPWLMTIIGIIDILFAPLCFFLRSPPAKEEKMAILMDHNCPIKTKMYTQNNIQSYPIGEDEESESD

T1 sequence (Q01827 whole entry): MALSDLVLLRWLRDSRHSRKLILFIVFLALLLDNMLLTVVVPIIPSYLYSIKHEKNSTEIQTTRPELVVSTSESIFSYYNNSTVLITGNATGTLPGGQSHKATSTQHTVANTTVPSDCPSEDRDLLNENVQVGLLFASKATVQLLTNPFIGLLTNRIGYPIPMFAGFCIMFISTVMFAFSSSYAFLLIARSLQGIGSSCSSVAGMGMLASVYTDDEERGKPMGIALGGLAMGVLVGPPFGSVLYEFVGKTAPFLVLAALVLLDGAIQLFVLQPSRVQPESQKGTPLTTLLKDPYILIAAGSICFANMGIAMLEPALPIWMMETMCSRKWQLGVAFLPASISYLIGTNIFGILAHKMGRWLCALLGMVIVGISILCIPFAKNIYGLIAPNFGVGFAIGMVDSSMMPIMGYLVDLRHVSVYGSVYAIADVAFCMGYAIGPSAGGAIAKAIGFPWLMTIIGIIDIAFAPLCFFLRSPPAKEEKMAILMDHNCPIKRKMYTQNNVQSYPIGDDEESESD

- Ki [1]: 150 nM
- Ki [2]: 45 nM
Structure (SMILES): COc1cc2c(cc1OC)C1CC(N)C(CC(C)C)CN1CC2 (stereo unspecified)

- Ki [1]: 7.01 nM
- Ki [2]: 8.68 nM
Structure (SMILES): COc1cc2c(cc1OC)C1CC(NCCCF)C(CC(C)C)CN1CC2 (stereo unspecified)

- Ki [1]: 269 nM
- Ki [2]: 199 nM
Structure (SMILES): CNC1CC2c3cc(OC)c(OC)cc3CCN2CC1CC(C)C (stereo unspecified)

More lines, now with the values behind:

Structure (SMILES): COc1cc2c(cc1OC)C1CC(NCCF)C(CC(C)C)CN1CC2 (mixture of isomers)
- Ki [1]: 230 nM
- Ki [2]: 28 nM

Structure (SMILES): COc1cc2c(cc1OC)C1CC(NCCF)C(CC(C)C)CN1CC2 (single isomer, unassigned; diastereomer 2)
- Ki [1]: 686 nM
- Ki [2]: 226 nM

Structure (SMILES): COc1cc2c(cc1OC)C1CC(NCCF)C(CC(C)C)CN1CC2 (stereo in doubt; 4-I)
- Ki [1]: 8.63 nM
- Ki [2]: 9.21 nM

Structure (SMILES): COc1cc2c(cc1OCCCF)CCN1C[C@@H](CC(C)C)[C@H](O)C[C@H]21 [FLORBENAZINE]
- Ki [1]: 0.36 nM
- Ki [2]: 0.24 nM
- Ratio [3]: 4.51
- Ki [4]: 0.1 nM
